The assay has as its target T1, Recombinant human PDE4B (Homo sapiens, UniProt Q07343).
T1 construct: aa 305-end; GST (N); made in house; host or cells: Sf9 insect cells (baculovirus)
The assay is described as follows: PDE4B Phosphodiesterase Assay. Type of assay: biochemical. Set-up: key to Activity Note: PDE4: The (+) symbols identify a compound of the present disclosure with the noted target activity; +*: The (*) symbols indicate preferential activity, where the greater number identifies the most preferred compounds; +**: The (*) symbols indicate preferential activity, where the greater number identifies the most preferred compounds; +***: The (*) symbols indicate preferential activity, where the greater number identifies the most preferred compounds. The following applies: compound list; + = noted target activity. The method, then: The assay is based on the fluorescence polarization measuring AMP/GMP production as a result of the enzyme activity by displacement of Tracer binding to the AMP/GMP antibody. • Reaction Buffer: 10 mM Tris-HCl, pH 7.5, 5 mM MgCl2, 0.01% Brij 35, 1 mM DTT and 1% DMSO. • Enzyme: Recombinant human PDE4B (Gene Accession #NM_002600; aa 305-end) was expressed by baculovirus in Sf9 insect cells using an N-terminal GST tag. Mw=78 kDa. • Substrate: 1 μM cAMP • Detection: Transcreener® AMP2/GMP2 Antibody AMP2/GMP2 AlexaFluor 633 Tracer Reaction Procedure: • 1. Prepared indicated enzyme and substrate in freshly prepared Reaction Buffer • 2. Delivered enzyme solution into the reaction well • 3. Delivered compounds in 100% DMSO into the enzyme solution by Acoustic technology (Echo550; nanoliter range), incubated for 10 min at room temperature • 4. Delivered substrate solution into the reaction well to initiate the reaction • 5. Incubated for 1 h at room temperature • 6. Added detection mixture (Tracer and antibody in the stop buffer) to stop the reaction and incubated for 90 min with gentle mixing. The fluorescence polarization was measured at Ex/Em 620/688.
Data Analysis: The FP signals were converted into nM product based on an AMP/GMP standard curve and calculated % Enzyme activity relative to DMSO control by Excel. The curve fit was performed using GraphPad prism.

T1 sequence (Q07343 305-736 limits assumed): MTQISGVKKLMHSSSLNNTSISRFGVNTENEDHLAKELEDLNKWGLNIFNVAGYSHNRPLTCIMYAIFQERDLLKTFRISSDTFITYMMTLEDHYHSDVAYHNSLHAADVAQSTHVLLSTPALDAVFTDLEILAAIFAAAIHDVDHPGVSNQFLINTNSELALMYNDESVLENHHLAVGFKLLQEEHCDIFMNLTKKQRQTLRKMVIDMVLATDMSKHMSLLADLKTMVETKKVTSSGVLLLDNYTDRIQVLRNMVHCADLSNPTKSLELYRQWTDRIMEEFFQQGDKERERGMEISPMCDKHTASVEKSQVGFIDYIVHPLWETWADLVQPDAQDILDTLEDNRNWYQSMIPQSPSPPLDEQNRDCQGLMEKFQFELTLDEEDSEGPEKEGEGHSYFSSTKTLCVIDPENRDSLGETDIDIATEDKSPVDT

Consider `Cc1cnc(Nc2ccc3c(c2)COB3O)nc1Nc1cccc2c1C(=O)N(CCF)C2` [2-(2-fluoroethyl)-7-((2-((1-hydroxy-1,3-dihydrobenzo[c][1,2]oxaborol-5-yl)amino)-5-methylpyrimidin-4-yl)amino)isoindolin-1-one], for which the “Activity Note: PDE4” value is “+”.

For `CCC(CC)Nc1nc(Nc2ccc3c(c2)COB3O)ncc1C#N` [2-((1-hydroxy-1,3-dihydrobenzo[c][1,2]oxaborol-5-yl)amino)-4-(pentan-3-ylamino) pyrimidine-5-carbonitrile], the “Activity Note: PDE4” value is on record as “+”.

On to `CCCNc1nc(Nc2ccc3c(c2)COB3O)ncc1C=O` [2-((1-hydroxy-1,3-dihydrobenzo[c][1,2]oxaborol-5-yl)amino)-4-(propylamino)pyrimidine-5-carbaldehyde], for which the “Activity Note: PDE4” value is recorded as “+”. With `Cc1cnc(Nc2ccc3c(c2)COB3O)nc1NC(CCO)CCO` [3-((2-((1-hydroxy-1,3-dihydrobenzo[c][1,2]oxaborol-5-yl)amino)-5-methylpyrimidin-4-yl)amino)pentane-1,5-diol], the “Activity Note: PDE4” value is on record as “+”. With `Cc1cnc(Nc2ccc3c(c2)COB3O)nc1NC(CCF)CCF` [5-((4-((1,5-difluoropentan-3-yl)amino)-5-methylpyrimidin-2-yl)amino)benzo[c][1,2]oxaborol-1(3H)-ol], the “Activity Note: PDE4” value was “+”. To `CCC(CO)Nc1nc(Nc2ccc3c(c2)COB3O)ncc1C` (stereo not drawn) [5-((4-((1-hydroxybutan-2-yl)amino)-5-methylpyrimidin-2-yl)amino)benzo[c][1,2]oxaborol-1(3H)-ol] belongs “+”; to `CCC(CCOC)Nc1nc(Nc2ccc3c(c2)COB3O)ncc1C(F)(F)F` (stereo not drawn) [5-((4-((1-methoxypentan-3-yl)amino)-5-(trifluoromethyl)pyrimidin-2-yl)amino)benzo[c][1,2]oxaborol-1(3H)-ol], “+”; to `Cc1cnc(Nc2ccc3c(c2)COB3O)nc1Nc1ccccc1Cl` [5-((4-((2-chlorophenyl)amino)-5-methylpyrimidin-2-yl)amino)benzo[c][1,2]oxaborol-1(3H)-ol], “+”.

`OB1OCc2cc(Nc3ncc(C(F)(F)F)c(NCCC4CC4)n3)ccc21` [5-((4-((2-cyclopropylethyl)amino)-5-(trifluoromethyl)pyrimidin-2-yl)amino)benzo[c][1,2]oxaborol-1(3H)-ol]: the “Activity Note: PDE4” value is reported as “+”. As for `OB1OCc2cc(Nc3ncc(F)c(NCCC4CC4)n3)ccc21` [5-((4-((2-cyclopropylethyl)amino)-5-fluoropyrimidin-2-yl)amino)benzo[c][1,2]oxaborol-1(3H)-ol], the “Activity Note: PDE4” value was “+”.

`Cc1cnc(Nc2ccc3c(c2)COB3O)nc1NCCC1CC1` [5-((4-((2-cyclopropylethyl)amino)-5-methylpyrimidin-2-yl)amino)benzo[c][1,2]oxaborol-1(3H)-ol]: the “Activity Note: PDE4” value is “+”.

As for `CCc1ccccc1Nc1nc(Nc2ccc3c(c2)COB3O)ncc1C` [5-((4-((2-ethylphenyl)amino)-5-methylpyrimidin-2-yl)amino)benzo[c][1,2]oxaborol-1(3H)-ol], the “Activity Note: PDE4” value is “+”.

Regarding `Cc1cnc(Nc2ccc3c(c2)COB3O)nc1Nc1ccccc1F` [5-((4-((2-fluorophenyl)amino)-5-methylpyrimidin-2-yl)amino)benzo[c][1,2]oxaborol-1(3H)-ol], the “Activity Note: PDE4” value is recorded as “+”. `Cc1cnc(Nc2ccc3c(c2)COB3O)nc1NC1CCOC(O)C1` (stereo not drawn) [5-((4-((2-hydroxytetrahydro-2H-pyran-4-yl)amino)-5-methylpyrimidin-2-yl)amino)benzo[c][1,2]oxaborol-1(3H)-ol]: the “Activity Note: PDE4” value is “+”.

On to `COc1ccccc1Nc1nc(Nc2ccc3c(c2)COB3O)ncc1C` [5-((4-((2-methoxyphenyl)amino)-5-methylpyrimidin-2-yl)amino)benzo[c][1,2]oxaborol-1(3H)-ol], for which the “Activity Note: PDE4” value is on record as “+”.

For the compound `Cc1cnc(Nc2ccc3c(c2)COB3O)nc1Nc1cccc(CO)c1` [5-((4-((3-(hydroxymethyl)phenyl)amino)-5-methylpyrimidin-2-yl)amino)benzo[c][1,2]oxaborol-1(3H)-ol], the “Activity Note: PDE4” value is “+”. `Cc1cnc(Nc2ccc3c(c2)COB3O)nc1NCc1cccc(Cl)c1` [5-((4-((3-chlorobenzyl)amino)-5-methylpyrimidin-2-yl)amino)benzo[c][1,2]oxaborol-1(3H)-ol]: the “Activity Note: PDE4” value is reported as “+”. With `Cc1cnc(Nc2ccc3c(c2)COB3O)nc1NCc1cccc(F)c1` [5-((4-((3-fluorobenzyl)amino)-5-methylpyrimidin-2-yl)amino)benzo[c][1,2]oxaborol-1(3H)-ol], the “Activity Note: PDE4” value is “+”. For `Cc1cnc(Nc2ccc3c(c2)COB3O)nc1NCc1ccc(Cl)cc1` [5-((4-((4-chlorobenzyl)amino)-5-methylpyrimidin-2-yl)amino)benzo[c][1,2]oxaborol-1(3H)-ol], the “Activity Note: PDE4” value is listed as “+”. For `Cc1cnc(Nc2ccc3c(c2)COB3O)nc1NCc1ccc(F)cc1` [5-((4-((4-fluorobenzyl)amino)-5-methylpyrimidin-2-yl)amino)benzo[c][1,2]oxaborol-1(3H)-ol], the “Activity Note: PDE4” value was “+”.

Regarding `OB1OCc2cc(Nc3ncc(C(F)(F)F)c(NCc4ccccc4)n3)ccc21` [5-((4-(benzylamino)-5-(trifluoromethyl)pyrimidin-2-yl)amino)benzo[c][1,2]oxaborol-1(3H)-ol], the “Activity Note: PDE4” value is recorded as “+”. Consider `OB1OCc2cc(Nc3ncc(Cl)c(NCc4ccccc4)n3)ccc21` [5-((4-(benzylamino)-5-chloropyrimidin-2-yl)amino)benzo[c][1,2]oxaborol-1(3H)-ol], for which the “Activity Note: PDE4” value is “+”. With `OB1OCc2cc(Nc3ncc(F)c(NCc4ccccc4)n3)ccc21` [5-((4-(benzylamino)-5-fluoropyrimidin-2-yl)amino)benzo[c][1,2]oxaborol-1(3H)-ol], the “Activity Note: PDE4” value is on record as “+”. With `Cc1cnc(Nc2ccc3c(c2)COB3O)nc1NCc1ccccc1` [5-((4-(benzylamino)-5-methylpyrimidin-2-yl)amino)benzo[c][1,2]oxaborol-1(3H)-ol], the “Activity Note: PDE4” value is given as “+”. Consider `Cc1cnc(Nc2ccc3c(c2)COB3O)nc1NC1CCC1` [5-((4-(cyclobutylamino)-5-methylpyrimidin-2-yl)amino)benzo[c][1,2]oxaborol-1(3H)-ol], for which the “Activity Note: PDE4” value is listed as “+”. Consider `OB1OCc2cc(Nc3ncc(C(F)(F)F)c(NC4CCCCC4)n3)ccc21` [5-((4-(cyclohexylamino)-5-(trifluoromethyl)pyrimidin-2-yl)amino)benzo[c][1,2]oxaborol-1(3H)-ol], for which the “Activity Note: PDE4” value is given as “+”.

Regarding `OB1OCc2cc(Nc3ncc(F)c(NC4CCCCC4)n3)ccc21` [5-((4-(cyclohexylamino)-5-fluoropyrimidin-2-yl)amino)benzo[c][1,2]oxaborol-1(3H)-ol], the “Activity Note: PDE4” value is “+”. As to `Cc1cnc(Nc2ccc3c(c2)COB3O)nc1NC1CCCCC1` [5-((4-(cyclohexylamino)-5-methylpyrimidin-2-yl)amino)benzo[c][1,2]oxaborol-1(3H)-ol], the “Activity Note: PDE4” value is reported as “+”.

With `OB1OCc2cc(Nc3nccc(NC4CCCCC4)n3)ccc21` [5-((4-(cyclohexylamino)pyrimidin-2-yl)amino)benzo[c][1,2]oxaborol-1(3H)-ol], the “Activity Note: PDE4” value is listed as “+”. `Cc1cnc(Nc2ccc3c(c2)COB3O)nc1OC1CCCCC1` [5-((4-(cyclohexyloxy)-5-methylpyrimidin-2-yl)amino)benzo[c][1,2]oxaborol-1(3H)-ol]: the “Activity Note: PDE4” value is on record as “+”. To `Cc1cnc(Nc2ccc3c(c2)COB3O)nc1SC1CCCCC1` [5-((4-(cyclohexylthio)-5-methylpyrimidin-2-yl)amino)benzo[c][1,2]oxaborol-1(3H)-ol] belongs “+”; to `OB1OCc2cc(Nc3ncc(C(F)(F)F)c(NC4CCCC4)n3)ccc21` [5-((4-(cyclopentylamino)-5-(trifluoromethyl)pyrimidin-2-yl)amino)benzo[c][1,2]oxaborol-1(3H)-ol], “+”; to `OB1OCc2cc(Nc3ncc(F)c(NC4CCCC4)n3)ccc21` [5-((4-(cyclopentylamino)-5-fluoropyrimidin-2-yl)amino)benzo[c][1,2]oxaborol-1(3H)-ol], “+”.

As for `Cc1cnc(Nc2ccc3c(c2)COB3O)nc1NC1CCCC1` [5-((4-(cyclopentylamino)-5-methylpyrimidin-2-yl)amino)benzo[c][1,2]oxaborol-1(3H)-ol], the “Activity Note: PDE4” value was “+”.

Take `OB1OCc2cc(Nc3nccc(NC4CCCC4)n3)ccc21` [5-((4-(cyclopentylamino)pyrimidin-2-yl)amino)benzo[c][1,2]oxaborol-1(3H)-ol]: the “Activity Note: PDE4” value is given as “+”.

Take `Cc1cnc(Nc2ccc3c(c2)COB3O)nc1OC1CCCC1` [5-((4-(cyclopentyloxy)-5-methylpyrimidin-2-yl)amino)benzo[c][1,2]oxaborol-1(3H)-ol]: the “Activity Note: PDE4” value is “+”.

These data come from patent US12358932B2, “Chemical compounds” (BORAH, INC., priority 2019, dated 2025).
